Tests used:
Experiment in all cases: cells
COLO-320-HSR = type: functional, cell-based, Homo sapiens; conditions: Homo sapiens, COLO-320-HSR
Description: SANGER: Inhibition of human COLO-320-HSR cell growth in a cell viability assay.

no-10 = type: functional, cell-based, Homo sapiens; conditions: Homo sapiens
Description: SANGER: Inhibition of human no-10 cell growth in a cell viability assay.

EKVX = type: functional, cell-based, Homo sapiens; conditions: Homo sapiens, EKVX
Description: SANGER: Inhibition of human EKVX cell growth in a cell viability assay.

GOTO = type: functional, cell-based, Homo sapiens; conditions: Homo sapiens, GOTO
Description: SANGER: Inhibition of human GOTO cell growth in a cell viability assay.

NTERA-2-cl-D1 = type: functional, cell-based, Homo sapiens; conditions: Homo sapiens, NTERA-2-cl-D1
Description: SANGER: Inhibition of human NTERA-S-cl-D1 cell growth in a cell viability assay.

NCI-H1648 = type: functional, cell-based, Homo sapiens; conditions: Homo sapiens, NCI-H1648
Description: SANGER: Inhibition of human NCI-H1648 cell growth in a cell viability assay.

LU-139 = type: functional, cell-based, Homo sapiens; conditions: Homo sapiens, LU-139
Description: SANGER: Inhibition of human LU-139 cell growth in a cell viability assay.

DEL = type: functional, cell-based, Homo sapiens; conditions: Homo sapiens, DEL
Description: SANGER: Inhibition of human DEL cell growth in a cell viability assay.

MZ7-mel = type: functional, cell-based, Homo sapiens; conditions: Homo sapiens, MZ7-mel
Description: SANGER: Inhibition of human MZ7-mel cell growth in a cell viability assay.

MZ2-MEL = type: functional, cell-based, Homo sapiens; conditions: Homo sapiens, MZ2-MEL
Description: SANGER: Inhibition of human MZ2-MEL cell growth in a cell viability assay.

IST-MES1 = type: functional, cell-based, Homo sapiens; conditions: Homo sapiens, IST-MES1
Description: SANGER: Inhibition of human IST-MES1 cell growth in a cell viability assay.

NEC8 = type: functional, cell-based, Homo sapiens; conditions: Homo sapiens, NEC8
Description: SANGER: Inhibition of human NEC8 cell growth in a cell viability assay.

OS-RC-2 = type: functional, cell-based, Homo sapiens; conditions: Homo sapiens, OS-RC-2
Description: SANGER: Inhibition of human OS-RC-2 cell growth in a cell viability assay.

LS-123 = type: functional, cell-based, Homo sapiens; conditions: Homo sapiens, LS-123
Description: SANGER: Inhibition of human LS-123 cell growth in a cell viability assay.

UACC-257 = type: functional, cell-based, Homo sapiens; conditions: Homo sapiens, UACC-257
Description: SANGER: Inhibition of human UACC-257 cell growth in a cell viability assay.

TE-12 = type: functional, cell-based, Homo sapiens; conditions: Homo sapiens, TE-12
Description: SANGER: Inhibition of human TE-12 cell growth in a cell viability assay.

NCI-H720 = type: functional, cell-based, Homo sapiens; conditions: Homo sapiens, NCI-H720
Description: SANGER: Inhibition of human NCI-H720 cell growth in a cell viability assay.

NCI-H226 = type: functional, cell-based, Homo sapiens; conditions: Homo sapiens, NCI-H226
Description: SANGER: Inhibition of human NCI-H226 cell growth in a cell viability assay.

MOLT-16 = type: functional, cell-based, Homo sapiens; conditions: Homo sapiens, MOLT-16
Description: SANGER: Inhibition of human MOLT-16 cell growth in a cell viability assay.

MEG-01 = type: functional, cell-based, Homo sapiens; conditions: Homo sapiens, MEG-01
Description: SANGER: Inhibition of human MEG-01 cell growth in a cell viability assay.

HDLM-2 = type: functional, cell-based, Homo sapiens; conditions: Homo sapiens, HDLM-2
Description: SANGER: Inhibition of human HDLM-2 cell growth in a cell viability assay.

L-363 = type: functional, cell-based, Homo sapiens; conditions: Homo sapiens, L-363
Description: SANGER: Inhibition of human L-363 cell growth in a cell viability assay.

SK-N-DZ = type: functional, cell-based, Homo sapiens; conditions: Homo sapiens, SK-N-DZ
Description: SANGER: Inhibition of human SK-N-DZ cell growth in a cell viability assay.

SW872 = type: functional, cell-based, Homo sapiens; conditions: Homo sapiens, SW872
Description: SANGER: Inhibition of human SW872 cell growth in a cell viability assay.

NCI-H446 = type: functional, cell-based, Homo sapiens; conditions: Homo sapiens, NCI-H446
Description: SANGER: Inhibition of human NCI-H446 cell growth in a cell viability assay.

KINGS-1 = type: functional, cell-based, Homo sapiens; conditions: Homo sapiens, KINGS-1
Description: SANGER: Inhibition of human KINGS-1 cell growth in a cell viability assay.

ACN = type: functional, cell-based, Homo sapiens; conditions: Homo sapiens, ACN
Description: SANGER: Inhibition of human ACN cell growth in a cell viability assay.

CTB-1 = type: functional, cell-based, Homo sapiens; conditions: Homo sapiens, CTB-1
Description: SANGER: Inhibition of human CTB-1 cell growth in a cell viability assay.

GAK = type: functional, cell-based, Homo sapiens; conditions: Homo sapiens, GAK
Description: SANGER: Inhibition of human GAK cell growth in a cell viability assay.

HuTu80 = type: functional, cell-based, Homo sapiens, HUTU-80; conditions: Homo sapiens, HuTu80
Description: SANGER: Inhibition of human HUTU-80 cell growth in a cell viability assay.

OCI-AML2 = type: functional, cell-based, Homo sapiens; conditions: Homo sapiens, OCI-AML2
Description: SANGER: Inhibition of human OCI-AML2 cell growth in a cell viability assay.

A388 = type: functional, cell-based, Homo sapiens; conditions: Homo sapiens, A388
Description: SANGER: Inhibition of human A388 cell growth in a cell viability assay.

SK-MEL-2 = type: functional, cell-based, Homo sapiens; conditions: Homo sapiens, SK-MEL-2
Description: SANGER: Inhibition of human SK-MEL-2 cell growth in a cell viability assay.

JVM-3 = type: functional, cell-based, Homo sapiens; conditions: Homo sapiens, JVM-3
Description: SANGER: Inhibition of human JVM-3 cell growth in a cell viability assay.

MFM-223 = type: functional, cell-based, Homo sapiens; conditions: Homo sapiens, MFM-223
Description: SANGER: Inhibition of human MFM-223 cell growth in a cell viability assay.

NCI-N87 = type: functional, cell-based, Homo sapiens; conditions: Homo sapiens, NCI-N87
Description: SANGER: Inhibition of human NCI-N87 cell growth in a cell viability assay.

SHP77 = type: functional, cell-based, Homo sapiens, SHP-77; conditions: Homo sapiens, SHP77
Description: SANGER: Inhibition of human SHP-77 cell growth in a cell viability assay.

OMC-1 = type: functional, cell-based, Homo sapiens; conditions: Homo sapiens, OMC-1
Description: SANGER: Inhibition of human OMC-1 cell growth in a cell viability assay.

MFH-ino = type: functional, cell-based, Homo sapiens; conditions: Homo sapiens, MFH-ino
Description: SANGER: Inhibition of human MFH-ino cell growth in a cell viability assay.

GI-1 = type: functional, cell-based, Homo sapiens; conditions: Homo sapiens, GI-1
Description: SANGER: Inhibition of human GI-1 cell growth in a cell viability assay.

DB = type: functional, cell-based, Homo sapiens; conditions: Homo sapiens, DB
Description: SANGER: Inhibition of human DB cell growth in a cell viability assay.

NCI-H510A = type: functional, cell-based, Homo sapiens; conditions: Homo sapiens, NCI-H510A
Description: SANGER: Inhibition of human NCI-H510A cell growth in a cell viability assay.

EW-1 = type: functional, cell-based, Homo sapiens; conditions: Homo sapiens, EW-1
Description: SANGER: Inhibition of human EW-1 cell growth in a cell viability assay.

LC-2-ad = type: functional, cell-based, Homo sapiens; conditions: Homo sapiens, LC-2-ad
Description: SANGER: Inhibition of human LC-2-ad cell growth in a cell viability assay.

KNS-42 = type: functional, cell-based, Homo sapiens; conditions: Homo sapiens, KNS-42
Description: SANGER: Inhibition of human KNS-42 cell growth in a cell viability assay.

ES5 = type: functional, cell-based, Homo sapiens; conditions: Homo sapiens, ES5
Description: SANGER: Inhibition of human ES5 cell growth in a cell viability assay.

HCC 2998 = type: functional, cell-based, Homo sapiens; conditions: Homo sapiens, HCC 2998
Description: SANGER: Inhibition of human HCC2998 cell growth in a cell viability assay.

JAR = type: functional, cell-based, Homo sapiens; conditions: Homo sapiens, JAR
Description: SANGER: Inhibition of human JAR cell growth in a cell viability assay.

D-247MG = type: functional, cell-based, Homo sapiens; conditions: Homo sapiens, D-247MG
Description: SANGER: Inhibition of human D-247MG cell growth in a cell viability assay.

## C=C(c1ccc(C(=O)O)cc1)c1cc2c(cc1C)C(C)(C)CCC2(C)C [BEXAROTENE]
COLO-320-HSR
  IC50: > 8 µM
no-10
  IC50: > 8 µM
EKVX
  IC50: 0.165 µM
GOTO
  IC50: > 8 µM
NTERA-2-cl-D1
  IC50: > 8 µM
NCI-H1648
  IC50: > 8 µM
LU-139
  IC50: > 8 µM
DEL
  IC50: > 8 µM
MZ7-mel
  IC50: > 8 µM
MZ2-MEL
  IC50: > 8 µM
IST-MES1
  IC50: > 8 µM
NEC8
  IC50: > 8 µM
OS-RC-2
  IC50: > 8 µM
LS-123
  IC50: > 8 µM
UACC-257
  IC50: > 8 µM
TE-12
  IC50: > 8 µM
NCI-H720
  IC50: > 8 µM
NCI-H226
  IC50: > 8 µM
MOLT-16
  IC50: > 8 µM
MEG-01
  IC50: > 8 µM
HDLM-2
  IC50: > 8 µM
L-363
  IC50: > 8 µM
SK-N-DZ
  IC50: > 8 µM
SW872
  IC50: > 8 µM
NCI-H446
  IC50: > 8 µM
KINGS-1
  IC50: > 8 µM
ACN
  IC50: > 8 µM
CTB-1
  IC50: > 8 µM
GAK
  IC50: > 8 µM
HuTu80
  IC50: > 8 µM
OCI-AML2
  IC50: > 8 µM
A388
  IC50: > 8 µM
SK-MEL-2
  IC50: > 8 µM
JVM-3
  IC50: > 8 µM
MFM-223
  IC50: > 8 µM
NCI-N87
  IC50: > 8 µM
SHP77
  IC50: > 8 µM
OMC-1
  IC50: > 8 µM
MFH-ino
  IC50: 7.21 µM
GI-1
  IC50: > 8 µM
DB
  IC50: > 8 µM
NCI-H510A
  IC50: > 8 µM
EW-1
  IC50: > 8 µM
LC-2-ad
  IC50: > 8 µM
KNS-42
  IC50: > 8 µM
ES5
  IC50: > 8 µM
HCC 2998
  IC50: > 8 µM
JAR
  IC50: > 8 µM

## Oc1ccc2ccccc2c1SSc1c(O)ccc2ccccc12
COLO-320-HSR
  IC50: > 32 µM
no-10
  IC50: > 32 µM
EKVX
  IC50: > 32 µM
GOTO
  IC50: > 32 µM
NTERA-2-cl-D1
  IC50: > 32 µM
NCI-H1648
  IC50: > 32 µM
LU-139
  IC50: > 32 µM
DEL
  IC50: 9.64 µM
MZ7-mel
  IC50: > 32 µM
MZ2-MEL
  IC50: > 32 µM
IST-MES1
  IC50: > 32 µM
NEC8
  IC50: > 32 µM
OS-RC-2
  IC50: > 32 µM
LS-123
  IC50: 8.8 µM
UACC-257
  IC50: > 32 µM
TE-12
  IC50: > 32 µM
NCI-H720
  IC50: > 32 µM
NCI-H226
  IC50: 12.6 µM
MOLT-16
  IC50: > 32 µM
MEG-01
  IC50: > 32 µM
HDLM-2
  IC50: > 32 µM
L-363
  IC50: > 32 µM
SK-N-DZ
  IC50: 9.2 µM
SW872
  IC50: 7.84 µM
NCI-H446
  IC50: > 32 µM
KINGS-1
  IC50: > 32 µM
ACN
  IC50: > 32 µM
CTB-1
  IC50: 12.7 µM
GAK
  IC50: > 32 µM
HuTu80
  IC50: > 32 µM
OCI-AML2
  IC50: 8.06 µM
A388
  IC50: > 32 µM
SK-MEL-2
  IC50: > 32 µM
JVM-3
  IC50: > 32 µM
MFM-223
  IC50: > 32 µM
NCI-N87
  IC50: > 32 µM
SHP77
  IC50: > 32 µM
OMC-1
  IC50: > 32 µM
MFH-ino
  IC50: > 32 µM
GI-1
  IC50: > 32 µM
DB
  IC50: 12.7 µM
NCI-H510A
  IC50: > 32 µM
EW-1
  IC50: 14.2 µM
LC-2-ad
  IC50: 24.1 µM
KNS-42
  IC50: > 32 µM
ES5
  IC50: 12.3 µM
HCC 2998
  IC50: > 32 µM
JAR
  IC50: > 32 µM

## Cn1cnc2c(F)c(Nc3ccc(Br)cc3Cl)c(C(=O)NOCCO)cc21 [SELUMETINIB]
COLO-320-HSR
  IC50: > 4 µM
D-247MG
  IC50: > 4 µM
no-10
  IC50: > 4 µM
EKVX
  IC50: > 4 µM
GOTO
  IC50: > 4 µM
NTERA-2-cl-D1
  IC50: > 4 µM
LU-139
  IC50: > 4 µM
DEL
  IC50: > 4 µM
MZ7-mel
  IC50: > 4 µM
MZ2-MEL
  IC50: 0.394 µM
IST-MES1
  IC50: > 4 µM
NEC8
  IC50: > 4 µM
OS-RC-2
  IC50: 2.4 µM
LS-123
  IC50: 3.62 µM
UACC-257
  IC50: 0.322 µM
TE-12
  IC50: > 4 µM
NCI-H720
  IC50: > 4 µM
NCI-H226
  IC50: > 4 µM
MOLT-16
  IC50: > 4 µM
MEG-01
  IC50: 1.63 µM
HDLM-2
  IC50: > 4 µM
L-363
  IC50: > 4 µM
SK-N-DZ
  IC50: > 4 µM
SW872
  IC50: 1.27 µM
NCI-H446
  IC50: > 4 µM
KINGS-1
  IC50: > 4 µM
ACN
  IC50: 0.567 µM
CTB-1
  IC50: > 4 µM
GAK
  IC50: 1.9 µM
OCI-AML2
  IC50: > 4 µM
A388
  IC50: > 4 µM
SK-MEL-2
  IC50: 0.405 µM
JVM-3
  IC50: 0.701 µM
MFM-223
  IC50: > 4 µM
NCI-N87
  IC50: > 4 µM
SHP77
  IC50: > 4 µM
OMC-1
  IC50: > 4 µM
GI-1
  IC50: > 4 µM
DB
  IC50: > 4 µM
EW-1
  IC50: > 4 µM
LC-2-ad
  IC50: > 4 µM
KNS-42
  IC50: > 4 µM
ES5
  IC50: > 4 µM
HCC 2998
  IC50: 0.269 µM
JAR
  IC50: > 4 µM

Source: ChEMBL document CHEMBL1201861, “Genomics of Drug Sensitity in Cancer screening data, Wellcome Trust Sanger Institute”
